Data taken from ChEMBL document CHEMBL1201862, “PubChem BioAssay data set” (2004).
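Growth conditions: 96-well plates. Treatment: test compound, 48 hours, 5 concentrations. Analysis: linear interpolation between bracketing concentrations; unreached endpoints set to highest concentration. Here, GI50 denotes the concentration required for 50% inhibition of growth.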 Activity calls are given as the source filed them. Rule as the data show it: active = GI50 up to about 1.1 µM and inactive = higher. *1 amine or outer side, *2 acyl side, *3 side chain or, on linkers, in order; H or OH if unused. Where a SMILES comes first, the peptide text is derived from it. Bridges are numbered along the chain shown (N, C = ends). [ ]: non-standard residue; d: D form. The star is where a group is joined. ξ: configuration not given here. ξOrn(4,5-diOH) = O=C(C(CC(O)C(O)N[*:3])N[*:1])[*:2]; ξhTyr(βξ-OH,γξ-OH) = NC(C(=O)O)C(O)C(O)c1ccc(O)cc1; ξPro(3ξ-OH,4ξ-Me) = CC1CNC(C(=O)O)C1O; X55 = CCCCC/C=C/C/C=C\CCCCCCCC(=O)*; Hyp = O=C(O)[CH]1C[CH](O)CN1

Legend:
Experiment in all cases: NCI-60 cell line screen, 48 h
786-0 = system: 786-0
A498 = system: A498
BT-549 = system: BT-549
DU-145 = system: DU-145
KM12 = system: KM12
MCF7 = system: MCF7
MDA-MB-435 = system: MDA-MB-435
MDA-N = system: MDA-N
OVCAR-3 = system: OVCAR-3
SF-268 = system: SF-268
SF-295 = system: SF-295
SK-MEL-28 = system: SK-MEL-28
SK-MEL-5 = system: SK-MEL-5
SK-OV-3 = system: SK-OV-3
SN12C = system: SN12C
SW-620 = system: SW-620
TK-10 = system: TK-10
U-251 = system: U-251
UACC-62 = system: UACC-62
PC-3 = system: PC-3

Measured: GI50

O=C1/C(=C\c2cccc(Oc3ccccc3)c2)SC(c2ccccc2)N1Cc1ccccc1 (configuration not stated)
inactive: 786-0 34.8 µM | A498 37.7 µM | BT-549 25.2 µM | DU-145 34.9 µM | KM12 24.5 µM | MCF7 26.1 µM | MDA-MB-435 23.3 µM | MDA-N 17 µM | OVCAR-3 23.5 µM | SF-268 35 µM | SF-295 35.3 µM | SK-MEL-28 29.6 µM | SK-MEL-5 14.8 µM | SK-OV-3 19.1 µM | SN12C 33 µM | SW-620 38.3 µM | TK-10 32.1 µM | U-251 18.4 µM | UACC-62 29.3 µM

Nc1cccc2nnccc12
inactive: 786-0 > 100 µM | BT-549 > 100 µM | DU-145 > 100 µM | KM12 > 100 µM | MCF7 > 100 µM | MDA-MB-435 > 100 µM | MDA-N > 100 µM | PC-3 > 100 µM | SF-268 > 100 µM | SF-295 > 100 µM | SK-MEL-5 > 100 µM | SK-OV-3 > 100 µM | SN12C > 100 µM | SW-620 > 100 µM | TK-10 > 100 µM | U-251 > 100 µM | UACC-62 > 100 µM

CN1C2=Nc3n(C)c4ccccc4[n+]3CN2c2ccccc21
inactive: 786-0 36.2 µM | BT-549 > 100 µM | DU-145 43.3 µM | KM12 8.73 µM | MCF7 10.5 µM | MDA-MB-435 26.5 µM | MDA-N 17.8 µM | OVCAR-3 10.8 µM | PC-3 47.3 µM | SF-268 13.1 µM | SF-295 95.7 µM | SK-MEL-5 12.6 µM | SK-OV-3 > 100 µM | SN12C 25.8 µM | SW-620 24.3 µM | TK-10 > 100 µM | U-251 25.2 µM | UACC-62 17 µM

Cc1cc(O)nc(/N=C(\N)Nc2ccc(Cl)cc2)n1
inactive: 786-0 > 100 µM | A498 > 100 µM | BT-549 > 100 µM | DU-145 > 100 µM | KM12 > 100 µM | MDA-MB-435 > 100 µM | MDA-N > 100 µM | OVCAR-3 > 100 µM | PC-3 > 100 µM | SF-268 > 100 µM | SF-295 > 100 µM | SK-MEL-28 > 100 µM | SK-MEL-5 > 100 µM | SN12C > 100 µM | SW-620 > 100 µM | TK-10 > 100 µM | U-251 > 100 µM | UACC-62 > 100 µM

Cc1c(Cl)nc(Nc2nc3ccccc3[nH]2)nc1Cl
inactive: 786-0 59.4 µM | A498 > 100 µM | BT-549 > 100 µM | DU-145 39.4 µM | KM12 17.1 µM | MDA-MB-435 > 100 µM | MDA-N > 100 µM | PC-3 > 100 µM | SF-268 47.6 µM | SF-295 > 100 µM | SK-MEL-28 40 µM | SK-MEL-5 > 100 µM | SK-OV-3 > 100 µM | SN12C 41 µM | SW-620 31.2 µM | TK-10 > 100 µM | U-251 > 100 µM | UACC-62 > 100 µM

CC(=O)OC(COc1ccc2c(c1)[n+]([O-])nc(N)[n+]2[O-])CN1CCCCC1 (configuration not stated)
inactive: 786-0 9.98 µM | A498 4.36 µM | BT-549 24.5 µM | DU-145 18.3 µM | KM12 13.1 µM | MCF7 4.71 µM | MDA-MB-435 36 µM | OVCAR-3 13.6 µM | PC-3 1.52 µM | SF-268 > 10 µM | SK-MEL-28 24.5 µM | SK-MEL-5 3.78 µM | SN12C 7.62 µM | SW-620 17.1 µM | TK-10 23.5 µM | U-251 13.5 µM

CCCCC/C=C/C/C=C\CCCCCCCC(=O)NC1CC(O)C(O)NC(=O)C2C(O)C(C)CN2C(=O)C(C(C)O)NC(=O)C(C(O)C(O)c2ccc(O)cc2)NC(=O)C2CC(O)CN2C(=O)C(C(C)O)NC1=O (stereo not drawn) (X55-[ξOrn(4,5-diOH)]T[Hyp][ξhTyr(βξ-OH,γξ-OH)]T[ξPro(3ξ-OH,4ξ-Me)]; lactam 1-C; configuration not given here)
inactive: 786-0 > 100 µM | BT-549 > 100 µM | DU-145 > 100 µM | KM12 > 100 µM | MDA-MB-435 > 100 µM | MDA-N > 100 µM | OVCAR-3 > 100 µM | PC-3 > 100 µM | SF-268 > 100 µM | SF-295 > 100 µM | SK-MEL-28 > 100 µM | SK-MEL-5 > 100 µM | SN12C > 100 µM | SW-620 > 100 µM | TK-10 > 100 µM | U-251 > 100 µM | UACC-62 > 100 µM

N#CC1(C#N)N[C@@H](c2ccsc2)[C@H]2C(=O)N(c3ccccc3)C(=O)[C@H]21
inactive: 786-0 > 100 µM | A498 26.4 µM | BT-549 97.7 µM | DU-145 66.4 µM | KM12 > 100 µM | MDA-MB-435 45.7 µM | MDA-N 38.3 µM | OVCAR-3 > 100 µM | PC-3 53.7 µM | SF-268 84.5 µM | SF-295 > 100 µM | SK-MEL-28 77.8 µM | SK-MEL-5 35.4 µM | SK-OV-3 > 100 µM | SN12C 89.1 µM | SW-620 > 100 µM | TK-10 > 100 µM | U-251 77.6 µM | UACC-62 28.8 µM

CC(=O)Nc1cccc(N2C(=O)/C(=C\c3cccc(Oc4ccccc4)c3)SC2c2ccccc2)c1 (configuration not stated)
inactive: 786-0 > 100 µM | A498 > 100 µM | BT-549 > 100 µM | DU-145 > 100 µM | KM12 80.7 µM | MCF7 36.4 µM | MDA-MB-435 33.9 µM | MDA-N 28.1 µM | OVCAR-3 50.7 µM | SF-268 72.1 µM | SF-295 > 100 µM | SK-MEL-28 79.1 µM | SK-MEL-5 33.5 µM | SK-OV-3 76 µM | SN12C > 100 µM | SW-620 54.6 µM | TK-10 97.5 µM | U-251 35.5 µM | UACC-62 60.3 µM

Cc1nc2c(cc1C(=O)NN)c(=O)n(C)c(=O)n2C
inactive: 786-0 > 100 µM | BT-549 > 100 µM | DU-145 > 100 µM | KM12 > 100 µM | MCF7 > 100 µM | MDA-MB-435 > 100 µM | MDA-N > 100 µM | OVCAR-3 > 100 µM | PC-3 > 100 µM | SF-295 > 100 µM | SK-MEL-28 > 100 µM | SK-MEL-5 > 100 µM | SK-OV-3 > 100 µM | SN12C > 100 µM | SW-620 > 100 µM | TK-10 > 100 µM | U-251 > 100 µM | UACC-62 > 100 µM

Cc1cc(S(N)(=O)=O)c(SCc2nc(N)nc(N(C)C)n2)cc1Cl
inactive: 786-0 > 10 µM | A498 > 10 µM | BT-549 > 10 µM | DU-145 > 10 µM | KM12 > 10 µM | MCF7 > 10 µM | MDA-N > 10 µM | OVCAR-3 > 10 µM | PC-3 > 10 µM | SF-268 > 10 µM | SF-295 > 10 µM | SK-MEL-28 > 10 µM | SK-MEL-5 > 10 µM | SK-OV-3 > 10 µM | SN12C > 10 µM | SW-620 > 10 µM | TK-10 > 10 µM | U-251 > 10 µM
